Results from publication PMC12081876, “Identification of PTGR2 inhibitors as a new therapeutic strategy for diabetes and obesity” (EMBO Molecular Medicine, 2025).
Values joined by “and” are separate entries in the source; they are usually repeats but may differ in a detail not shown here. Identical values can stand only once.

Columns and labels:
PTGR2 [1] = system: PTGR2; design: method as in Toroitich et al, 2021; conditions: ref Toroitich et al, 2021; cited from earlier work
PTGR2 [2] = system: PTGR2; design: method as in Toroitich et al, 2021; conditions: ref Toroitich et al, 2021; cited from earlier work; remark: listed apart in the source
[3] = system: differentiated 3T3-L1 adipocytes; test: Insulin-stimulated glucose uptake assay by (3H)2-deoxyglucose; format: cell-based, mouse; design: insulin-stimulated glucose uptake, Fig 1J replicates / Figure 5E raw value, insulin-stimulated glucose uptake (replicates): unit not given here
Procedure: (§1) The cell lines, which were tested for mycoplasma contamination and authenticated, were purchased from the Bioresource Collection and Research Center, Taiwan. All cells were cultured at 37 °C, 5% CO2 in a humidified incubator. HEK293T cells were maintained in DMEM (cat. no. SH30003.02, HyClone) supplemented with 10% fetal bovine serum (FBS) (cat. no. 04-001-1A, Biological Industries) and 1% antibiotic/antimycotic solution (cat. no. SV30079.01, HyClone). 3T3-L1 preadipocytes were maintained at ~70% confluence in DMEM with 10% calf serum (cat. no. 16170078, Gibco) and 1% antibiotic/antimycotic solution. For adipocyte differentiation, confluent 3T3-L1 cells (defined as day 0) were exposed to an induction medium containing 10% FBS, 1 μM dexamethasone (cat. no. D4902, Sigma-Aldrich), and 1 μg/ml insulin (Humulin R, Eli Lilly) in DMEM with or without 0.5 mM isobutyl-methylxanthine (cat. no. sc-201188A, Santa Cruz Biotechnology) as indicated. After two days, the medium was replaced with DMEM containing 10% FBS and 1 μg/ml insulin and was replenished every two days until assay.
Differentiated 3T3-L1 cells were starved with serum-free DMEM containing 0.2% BSA (cat. no. A9647, Sigma-Aldrich). Cells were rinsed twice with KRH buffer (137 mM NaCl, 4.7 mM KCl, 1.85 mM CaCl2, 1.3 mM MgSO4, 50 mM HEPES and 0.1% BSA, pH 7.4), and treated with or without […] insulin in the presence of 20 μM cytochalasin B (cat. no. 11328, Cayman Chemical), a GLUT inhibitor for measuring non-specific glucose uptake, for 30 min. Cells were then incubated with 0.5 μCi [^3H]-2-deoxy-D-Glucose (cat. no. NET328A001MC, PerkinElmer) and 0.1 μM 2-deoxy-D-Glucose (2DG) (cat. no. 14325, Cayman Chemical) for 5 min. Uptake of 2DG was terminated by rapidly removing medium and washing with ice-cold PBS three times. Cells were lysed with 0.1% SDS, and the radioactivity was measured using a liquid scintillation counter. Insulin-mediated glucose uptake was calculated by subtracting insulin-treated glucose uptake with basal glucose uptake.

[4] = system: PPARγ-null 3T3-L1 clones rescued with wild-type mPPARγ; test: Insulin-stimulated glucose uptake in PPARγ-null 3T3-L1 clones rescued with wild-type mPPARγ; format: cell-based, mouse; conditions: Pio 1; clone #1296 rescued with wild-type mPPARγ
Procedure: (§2) Gene editing was performed in 3T3-L1 preadipocytes using the clustered regularly interspaced short palindromic repeats (CRISPR)/Cas9 system. Two single-guide RNAs (sgRNA) (Appendix Table S5) targeting exon 6 of mouse Pparγ were designed using a web-based design tool (http://crispr.mit.edu/). These oligonucleotides were cloned into the pSurrogate reporter and pAll-Cas9.Ppuro vector obtained from Academia Sinica, Taiwan. The pSurrogate reporter contains an EGFP and an out-of-frame mCherry downstream of the sgRNA; the pAll-Cas9.Ppuro vector expresses Cas9 nuclease and sgRNA. Once a double-strand breaking at the target site in pSurrogate reporter plasmid was created by Cas9, insertions and deletions (indels) could be introduced at the cleaved site. The indels cause frameshifts and result in the expression of the mCherry gene. 3T3-L1 preadipocytes were co-transfected with pSurrogate reporter and pAll-Cas9.Ppuro vectors at 80-90% confluency using PolyJet™ transfection reagent (cat. no. SL100688, SignaGen Laboratories, USA). Two days after transfection, EGFP/mCherry double-positive cells were enriched by fluorescent-activated cell sorting. Single cells were isolated and expanded. The genomic DNA was amplified by PCR and sequenced to confirm the knockout cell lines. The primer sequences are shown in Appendix Table S5.
(§3) The mPPARγ C313A DNA sequence was amplified from pCMV6-Pparg C313A and subcloned into the pLVX-IRES-Neo vector with XhoI/NotI restriction sites. The lentiviral expression plasmids, pMD.G, and pCMVΔR8.91 (RNAi Core, Academia Sinica, Taiwan), were co-transfected into HEK293T cells. […] HSP70 was probed with an anti-HSP70 antibody (cat. no. ab45133, Abcam) as a loading control.
(§4) Differentiated 3T3-L1 cells were starved with serum-free DMEM containing 0.2% BSA (cat. no. A9647, Sigma-Aldrich). […] Uptake of 2DG was terminated by rapidly removing medium and washing with ice-cold PBS three times. Cells were lysed with 0.1% SDS, and the radioactivity was measured using a liquid scintillation counter. Insulin-mediated glucose uptake was calculated by subtracting insulin-treated glucose uptake with basal glucose uptake.

mPPARγ-downstream genes = test: RT-qPCR of Glut4 and other mPPARγ-downstream genes in differentiated 3T3-L1 adipocytes; format: cell-based, mouse
Procedure: as §1
A total of 1 × 10^5 3T3-L1 preadipocytes were seeded in 6-well plates and differentiated for six days. The 3T3-L1 adipocytes were then harvested in 1 ml of REzol C&T (cat. no. PT-KP200CT, Protech), and total RNA was extracted according to the manufacturer’s instructions with slight modifications. Briefly, 200 μl of chloroform were added to 1 ml of sample in REzol, and samples were vigorously mixed by shaking for 30 s, followed by incubation at room temperature for 5 min. Then, samples were centrifuged at 12,000 × g for 15 min at 4 °C, and 400 μl of the upper aqueous phase were transferred to a new 1.5-ml tube. An equal volume of isopropanol was added. Samples were inverted several times for mixing and then centrifuged at 12,000 × g for 10 min at 4 °C. The RNA precipitate, which formed a pellet at the bottom of the 1.5-ml tube, was washed three times with 75% ethanol and air-dried for 15 min. Pellets were dissolved in RNase-free water. The concentration of RNA was measured using Nanodrop. cDNA was synthesized using a reverse transcription kit (cat. no. K1622, Thermo Scientific) using the oligo(dT)18 primers. RT-qPCR was performed in a 10-μl reaction with 50 ng cDNA and 0.2 μM primer using SYBR green reagent (cat. no. 11203ES08, YEASEN). Mouse peptidylprolyl isomerase A (Ppia) mRNA was used as the internal control. RT-qPCR reactions were performed using ABI 7900HT FAST (Applied Biosystems) and Sequence Detection Systems (SDS v2.3, Applied Biosystems). All qPCR reactions were run in duplicates. The primers used are listed in Appendix Table S3.

[5] = system: PPARγ-null 3T3-L1 clones rescued with mutant mPPARγ (C313A); test: Insulin-stimulated glucose uptake in PPARγ-null 3T3-L1 clones rescued with mutant mPPARγ (C313A); format: cell-based, mouse; conditions: Pio 1; clone #1296 rescued with mPPARγ C313A
Procedure: as §2, §3, §4

## O=C(c1ccc(S(=O)(=O)n2cncn2)cc1)N1CCC(c2ccccc2)CC1 [HHS-0701]
PTGR2 [1]
  PTGR2 enzymatic activity: inhibit PTGR2 enzymatic activity
PTGR2 [2]
  intracellular 15-keto-PGE2 concentration: increase intracellular 15-keto-PGE2 concentration dose-dependently

## CCCCCC(=O)/C=C/[C@H]1[C@H](O)CC(=O)[C@@H]1C/C=C\CCCC(=O)O [15ketoPGE2]
[3]; 10 uM, DMSO control 2969.5-4461.5
  Figure 5E raw value, insulin-stimulated glucose uptake (replicates): 5153.5 and 5837.5 and 5784.5 and 5754.5

## CCc1ccc(CCOc2ccc(CC3SC(=O)NC3=O)cc2)nc1 (stereo not shown) [Pio, pioglitazone]
[4]
  insulin-stimulated glucose uptake, Fig 1P left panel replicates: 4.143 and 3.599 and 3.13 and 3.624
mPPARγ-downstream genes; Pio 1μM
  Adipoq RT-qPCR, Fig 1I replicates: 1.437 and 1.615 and 1.7913
  Cepba RT-qPCR, Fig 1H replicates: 2.586 and 1.702 and 2.911
mPPARγ-downstream genes; Pio 1
  Acs RT-qPCR, Fig 1G replicates: 6.866 and 5.338 and 5.547
  Cd36 RT-qPCR, Fig 1F replicates: 2.685 and 1.765 and 2.147
  Glut4 RT-qPCR, Fig 1C replicates: 6.074 and 7.473 and 6.277
  Irs2 RT-qPCR, Fig 1D replicates: 3.5423 and 3.905 and 3.691
  Sorbs1 RT-qPCR, Fig 1E replicates: 2.4621 and 3.493 and 3.111
[3]; Pio 1
  insulin-stimulated glucose uptake, Fig 1J replicates: 4.303 and 3.949 and 2.761 and 3.925
[5]
  insulin-stimulated glucose uptake, Fig 1P right panel replicates: 4.613 and 5.328 and 5.351 and 7.42
